Measurements published in PubChem BioAssay AID1259408 (Genetic Toxicology Data Bank (GENE-TOX), 2018).
The source made the active and inactive calls. The rule behind the calls is not given here.

System: GENE-TOX genotoxicity assays, various organisms and cells
Test: GENE-TOX mutagenicity studies
Details: for call: Assay Type: In vivo carcinogenicity studies
[1] = Species/Cell Type: Drosophila melanogaster, Assay Type: Sex-linked recessive lethal gene mutation, Assay Code: SRL+, Evaluation Type: Evaluation A (Pre-1980)
[2] = Species/Cell Type: Nonhuman, Assay Code: CCG+, Evaluation Type: Evaluation A (Pre-1980)
[3] = Species/Cell Type: Salmonella typhimurium (one or more of the five standard strains: TA98, TA100, TA1535, TA1537, and TA1538), Assay Type: Histidine reverse gene mutation, Ames assay, Assay Code: SAL+*, Activation: With metabolic activation, Evaluation Type: Evaluation A (Pre-1980)
[4] = Species/Cell Type: Syrian hamster embryo (SA7/SHE) cells, Assay Type: Cell transformation, viral enhanced, Assay Code: CT7+, Evaluation Type: Evaluation A (Pre-1980)
[5] = Species/Cell Type: Bacillus subtilis (H17 vs M45), Assay Type: Rec-assay, spot test, DNA effects (bacterial DNA repair), Assay Code: REWT, Evaluation Type: Evaluation A (Pre-1980)
[6] = Species/Cell Type: Salmonella typhimurium (one or more of the five standard strains: TA98, TA100, TA1535, TA1537, and TA1538), Assay Type: Histidine reverse gene mutation, Ames assay, Assay Code: SALT, Evaluation Type: Evaluation A (Pre-1980)
[7] = Species/Cell Type: Saccharomyces cerevisiae, Assay Type: Mitotic recombination or gene conversion, Assay Code: YEC-, Evaluation Type: Evaluation A (Pre-1980)
[8] = Species/Cell Type: Nonhuman, Assay Type: Sister-chromatid exchange (SCE) in vitro, Assay Code: SC2+, Evaluation Type: Evaluation B (Post-1980)
[9] = Species/Cell Type: Salmonella typhimurium (one or more of the five standard strains: TA98, TA100, TA1535, TA1537, and TA1538), Assay Type: Histidine reverse gene mutation, Ames assay, Assay Code: SAL+, Evaluation Type: Evaluation A (Pre-1980)
[10] = Species/Cell Type: Human lymphocytes, Assay Type: Sister-chromatid exchange (SCE) in vitro, Assay Code: SCLT, Evaluation Type: Evaluation B (Post-1980)
[11] = Species/Cell Type: Human, Assay Type: Sister-chromatid exchange (SCE) in vitro, Assay Code: SC1T, Evaluation Type: Evaluation B (Post-1980)
[12] = Species/Cell Type: Nonhuman, Assay Code: CCGT, Evaluation Type: Evaluation A (Pre-1980)

Structure (SMILES): O=NN1CCN(N=O)CC1
- mutagenic call [1]: active; positive
- mutagenic call (Species/Cell Type: Drosophila melanogaster, Sex: Male, Assay Type: Heritable translocation test, chromosome aberrations, Assay Code: DHTT, Evaluation Type: Evaluation A (Pre-1980)): no conclusion
- mutagenic call (Species/Cell Type: Glycine max (soybean), Assay Type: Gene mutation, Assay Code: GLM-, Evaluation Type: Evaluation A (Pre-1980)): inactive; negative
- mutagenic call (Species/Cell Type: Mouse embryo (AKR/ME) cells, Assay Type: Cell transformation, Assay Code: CTK+, Evaluation Type: Evaluation A (Pre-1980)): active; positive
- call [2]: active; positive
- mutagenic call [3]: active; positive
- mutagenic call (Species/Cell Type: Salmonella typhimurium, Assay Type: Forward and reverse gene mutation, host-mediated assay, Assay Code: HMA+, Evaluation Type: Evaluation A (Pre-1980)): active; positive

Structure (SMILES): Cl.[Pt]
- mutagenic call [4]: active; positive

Structure (SMILES): COP(=S)(OC)SCn1nnc2ccccc2c1=O
- mutagenic call [5]: no conclusion
- mutagenic call (Species/Cell Type: Drosophila melanogaster, Assay Type: Sex-linked recessive lethal gene mutation, Assay Code: SRLT, Evaluation Type: Evaluation A (Pre-1980)): no conclusion
- mutagenic call (Species/Cell Type: Escherichia coli WP2 UVRA, Assay Type: Tryptophan reverse gene mutation, Assay Code: WPU-*, Activation: With metabolic activation, Evaluation Type: Evaluation A (Pre-1980)): inactive; negative
- mutagenic call (Species/Cell Type: Escherichia coli polA (W3119 vs P3478), Assay Type: Rec-assay, DNA effects (bacterial DNA repair), Assay Code: RE1T, Evaluation Type: Evaluation A (Pre-1980)): no conclusion
- mutagenic call (Species/Cell Type: Human diploid fibroblasts, Assay Type: Unscheduled DNA synthesis (UDS) in vitro, DNA effects, Assay Code: UDH-, Evaluation Type: Evaluation A (Pre-1980)): inactive; negative
- mutagenic call (Species/Cell Type: Nonhuman, Assay Type: Sister-chromatid exchange (SCE) in vitro, Assay Code: SC2-, Evaluation Type: Evaluation B (Post-1980)): inactive; negative
- mutagenic call (Species/Cell Type: Saccharomyces cerevisiae, Assay Type: Mitotic recombination or gene conversion, Assay Code: YEH+, Evaluation Type: Evaluation A (Pre-1980)): active; positive
- mutagenic call [6]: no conclusion

Structure (SMILES): CC[C@@]1(O)C[C@H](O[C@H]2C[C@H](NC)[C@H](O[C@H]3C[C@H](O)[C@H](O[C@H]4CCC(=O)[C@H](C)O4)[C@H](C)O3)[C@H](C)O2)c2c(cc3c(c2O)C(=O)c2c(O)cccc2C3=O)[C@H]1C(=O)OC
- mutagenic call [6]: no conclusion

Structure (SMILES): CNC(=O)Oc1ccccc1OC(C)C
- mutagenic call [5]: no conclusion
- mutagenic call (Species/Cell Type: Bacillus subtilis (H17 vs M45T), Assay Type: Rec-assay, spot test, DNA effects (bacterial DNA repair), Assay Code: REX-, Evaluation Type: Evaluation A (Pre-1980)): inactive; negative
- mutagenic call (Species/Cell Type: Escherichia coli WP2, Assay Type: Tryptophan reverse gene mutation, Assay Code: WP2-, Evaluation Type: Evaluation A (Pre-1980)): inactive; negative
- mutagenic call [7]: inactive; negative

Structure (SMILES): CCCCOc1ccc(CC(=O)NOC(C)=O)cc1
- mutagenic call [8]: active; positive

Structure (SMILES): Cc1cccc2c1cc(C)c1c3ccccc3ccc21
- mutagenic call [3]: active; positive

Structure (SMILES): CCCCN(N=O)/C(N)=N/[N+](=O)[O-]
- mutagenic call (Species/Cell Type: Arabidopsis species, Assay Type: Gene mutation, Assay Code: ARM+, Evaluation Type: Evaluation A (Pre-1980)): active; positive
- mutagenic call [9]: active; positive

Structure (SMILES): CCCCN(CCC(C)O)N=O (stereo unspecified)
- mutagenic call [9]: active; positive

Structure (SMILES): CC(=O)[O-].CC(=O)[O-].[Co+2]
- mutagenic call [4]: active; positive

Structure (SMILES): CC(=O)Nc1nc(NC(C)=O)nc(-c2ccc([N+](=O)[O-])o2)n1
- mutagenic call [9]: active; positive

Structure (SMILES): COc1cc(Cc2cnc(N)nc2N)cc(OC)c1OC
- mutagenic call (Species/Cell Type: Neurospora crassa, Assay Type: Aneuploidy, chromosome aberrations, Assay Code: NEN+, Evaluation Type: Evaluation A (Pre-1980)): active; positive
- mutagenic call [8]: active; positive

Structure (SMILES): Cc1ccc2cc3ccc4c(F)cccc4c3cc2c1
- mutagenic call (Species/Cell Type: Mouse prostate cells, Assay Type: Cell transformation, Assay Code: CTM+, Evaluation Type: Evaluation A (Pre-1980)): active; positive

Structure (SMILES): COc1ccc(CCN2CCC(Nc3nc4ccccc4n3Cc3ccc(F)cc3)CC2)cc1
- mutagenic call [10]: no conclusion
- mutagenic call [11]: no conclusion
- mutagenic call (Species/Cell Type: Mammalian polychromatic erythrocytes, Assay Type: Micronucleus test, chromosome aberrations, Assay Code: MNT-, Evaluation Type: Evaluation B (Post-1980)): inactive; negative

Structure (SMILES): OCc1c2ccccc2c2ccc3cccc4ccc1c2c43
- mutagenic call (Species/Cell Type: Chinese hamster lung (V79) cells, Assay Type: Forward gene mutation at the HPRT or ouabain locus, Assay Code: V79+*, Activation: With metabolic activation, Evaluation Type: Evaluation A (Pre-1980)): active; positive
- mutagenic call [1]: active; positive
- call [2]: active; positive
- mutagenic call [3]: active; positive

Structure (SMILES): Oc1ccc2cc3ccc4cccc5ccc(c2c1)c3c45
- mutagenic call (Species/Cell Type: Chinese hamster lung (V79) cells, Assay Type: Forward gene mutation at the HPRT or ouabain locus, Assay Code: V79+/-*, Activation: With metabolic activation, Evaluation Type: Evaluation A (Pre-1980)): inactive; positive without activation, negative with activation
- call [12]: no conclusion
- mutagenic call [3]: active; positive

Structure (SMILES): CN(C)C(=O)Nc1ccc(Oc2ccc(Cl)cc2)cc1
- mutagenic call [7]: inactive; negative

Structure (SMILES): Cc1ccc2c(c1N)C(=O)c1ccccc1C2=O
- call [2]: active; positive

Structure (SMILES): [Cl][Tl]
- mutagenic call [4]: active; positive

Structure (SMILES): O=[N+]([O-])c1ccc(N2CC2)c2c1no[n+]2[O-]
- mutagenic call [9]: active; positive

Structure (SMILES): COP(=O)(OC)OC=C(Cl)Cl
- mutagenic call (Species/Cell Type: Allium cepa, Assay Type: Chromosome aberrations, Assay Code: ALC+D, Dose Response: With dose response, Evaluation Type: Evaluation A (Pre-1980)): active; positive
- mutagenic call (Species/Cell Type: Bacillus subtilis (H17 vs M45), Assay Type: Rec-assay, spot test, DNA effects (bacterial DNA repair), Assay Code: REW+, Evaluation Type: Evaluation A (Pre-1980)): active; positive
- mutagenic call (Species/Cell Type: Drosophila melanogaster, Assay Type: Sex-linked recessive lethal gene mutation, Assay Code: SRL-, Evaluation Type: Evaluation A (Pre-1980)): inactive; negative
- mutagenic call (Species/Cell Type: Escherichia coli WP2, Assay Type: Tryptophan reverse gene mutation, Assay Code: WP2+, Evaluation Type: Evaluation A (Pre-1980)): active; positive
- mutagenic call (Species/Cell Type: Escherichia coli WP2 UVRA, Assay Type: Tryptophan reverse gene mutation, Assay Code: WPU+, Evaluation Type: Evaluation A (Pre-1980)): active; positive
- mutagenic call (Species/Cell Type: Escherichia coli polA (W3119 vs P3478), Assay Type: Rec-assay, DNA effects (bacterial DNA repair), Assay Code: RE1+, Evaluation Type: Evaluation A (Pre-1980)): active; positive
- mutagenic call (Species/Cell Type: Human lymphocytes, Assay Type: Sister-chromatid exchange (SCE) in vitro, Assay Code: SCL-, Evaluation Type: Evaluation A (Pre-1980)): inactive; negative
- mutagenic call [10]: no conclusion
- mutagenic call (Species/Cell Type: Human, Assay Type: Sister-chromatid exchange (SCE) in vitro, Assay Code: SC1-, Evaluation Type: Evaluation A (Pre-1980)): inactive; negative
- mutagenic call [11]: no conclusion
- mutagenic call (Species/Cell Type: Mammalian germ cells, Sex: Male, Assay Type: Chromosome aberrations in vivo, Assay Code: CY9-, Evaluation Type: Evaluation A (Pre-1980)): inactive; negative
- mutagenic call (Species/Cell Type: Mammalian polychromatic erythrocytes, Assay Type: Micronucleus test, chromosome aberrations, Assay Code: MNTT, Evaluation Type: Evaluation B (Post-1980)): no conclusion
- mutagenic call (Species/Cell Type: Mouse, Sex: Male, Assay Type: Sperm morphology, Assay Code: SPIT, Evaluation Type: Evaluation A (Pre-1980)): no conclusion
- mutagenic call (Species/Cell Type: Nonhuman bone marrow, Assay Type: Chromosome aberrations, in vivo, Assay Code: CY#-, Evaluation Type: Evaluation A (Pre-1980)): inactive; negative
- call [12]: no conclusion
- mutagenic call (Species/Cell Type: Nonhuman, Assay Type: Sister-chromatid exchange (SCE) in vitro, Assay Code: SC2+D, Dose Response: With dose response, Evaluation Type: Evaluation B (Post-1980)): active; positive
- mutagenic call (Species/Cell Type: Nonhuman, Assay Type: Sister-chromatid exchange (SCE) in vivo, Assay Code: SC3-, Evaluation Type: Evaluation B (Post-1980)): inactive; negative
- mutagenic call (Species/Cell Type: Rodents, Sex: Male, Assay Type: Dominant lethal test, Assay Code: DLTT, Evaluation Type: Evaluation A (Pre-1980)): no conclusion
- mutagenic call (Species/Cell Type: Saccharomyces cerevisiae, Assay Type: Mitotic recombination or gene conversion, Assay Code: YEC+, Evaluation Type: Evaluation A (Pre-1980)): active; positive
- mutagenic call [9]: active; positive
- mutagenic call (Species/Cell Type: Salmonella typhimurium, Serratia marcesens, Saccharomyces cerevisiae, Assay Type: Forward and reverse gene mutation, mitotic recombination and gene conversion, DNA effects, host-mediated assay, Assay Code: HM5-, Evaluation Type: Evaluation A (Pre-1980)): inactive; negative

Structure (SMILES): Cc1ccc2cc3c(ccc4ccccc43)c3c2c1CC3=O
- mutagenic call (Species/Cell Type: Chinese hamster lung (V79) cells, Assay Type: Forward gene mutation at the HPRT or ouabain locus, Assay Code: V79+, Evaluation Type: Evaluation A (Pre-1980)): active; positive
- call [12]: no conclusion
- mutagenic call [3]: active; positive

Structure (SMILES): CCOC(=O)CC(SP(=S)(OC)OC)C(=O)OCC (stereo unspecified) (tested in a mixture with another compound)
- mutagenic call (Species/Cell Type: Hordeum vulgare (barley), Assay Type: Chromosome aberrations, Assay Code: HOC+, Evaluation Type: Evaluation A (Pre-1980)): active; positive

Structure (SMILES): Clc1ccc2c(Cl)ccnc2c1
- mutagenic call [6]: no conclusion
